Data reported in patent publication US8722727B2, “Antifungal agents” (Seynix, Inc., priority 2008, dated 2014).

Biological target: T1, glucan synthase (GS) (Candida albicans, UniProt O13428)
T1 construct: Extraction of GS activity from membranes was performed at a protein concentration of 5 mg/mL in extraction buffer; endogenous in cells; host or cells: Candida albicans MY1055 (membrane fraction, detergent extraction, product entrapment)
Experiment: Glucan synthase inhibition (polymerization assay, 96-well)
Format: biochemical
Settings: glucan synthase prepared from Candida albicans MY1055; 60 min incubation at 22° C.; read-out: Candida Albicans GS IC50 (ng/mL) (converted)
Procedure: The in vitro evaluation of glucan synthase inhibitory activity of compounds was measured in a polymerization assay in 96-well format. Each well contained 100 μL of ^3H-UDPG at 0.5 mM (6000 to 8000 dpm/nmol), 50 mM HEPES pH 7.5 (Sigma), 10% w/v glycerol (Sigma), 1.5 mg/mL bovine serum albumin (Sigma A 9647. Lot 44H0190), 25 mM KF (Fisher), 1 mM EDTA (Gibco ULTRAPURE), 25 μM GTP-γ-S, enzyme sufficient to give 3 to 6 nmoles incorporation during the 60 min incubation at 22° C., and test compound added from wells in 3-fold serial dilutions in 100% DMSO (1 μL/well). The reaction was stopped by the addition of 100 μL of 20% trichloroacetic acid. Plates were chilled for a minimum of 10 min, and precipitated glucan collected by filtration on GF/C plates (Packard UNIFILTER®-96), washed with 5 cycles of water (about 1 mL/well each cycle) using a Packard FILTERMATE HARVESTER. 40 μL/well scintillation fluid (Packard ULTIMA GOLD TM-XR) was added and the sealed plates counted in a WALLAC BETA counter in top-counting mode at an efficiency of approximately 40%.
Stock solutions were stored at 10 mg/mL in DMSO at −20° C. For each new enzyme preparation, the initial titration performed started at 1 mg/mL, which was prepared by making a 10-fold dilution in DMSO (5 μL to 50 μL). 40 μL of this stock was placed in column 12 of a round-bottomed 96-well microtiter plate. 40 μL DMSO was added to columns 1 to 11 in the same row and ten 3-fold serial dilutions performed, by transferring 20 μL from column 12 to column 11 etc., with 4 mixings before each transfer. No test compound was transferred to from column 2 to column 1. Duplicate aliquots of 1 μL of all 12 dilutions were then transferred to the side walls of a 96-well Bioblock 1.1 mL plate (Fisher brand) to create two rows. Graphs of the primary data were created in PRISM software (the average of two determinations) using PRISM's curve fitting program (sigmoidal dose response non-linear regression). The amount of compound required to inhibit glucan synthase activity by 50% in this assay (IC50-ng/mL) was calculated.
Routine analysis was performed with glucan synthase (GS) prepared from Candida albicans MY1055 by the following procedure: MY1055 was grown in 10 liters YPD medium (10 g yeast extract, 20 g tryptone, 20 g glucose per liter) with vigorous shaking at 30° C., to early stationary phase. Cells were harvested by centrifugation, the pellet was washed and frozen at −70° C. until breakage. Thawed pellets were shaken with an equal volume of breakage buffer (50 mM HEPES pH 7.4, 10% glycerol, 1 mM EDTA, 1 mM PMSF, 1 mM DTT) and 4 times their weight of 0.5 mm acid washed glass beads for 2 hours at 4° C. Extent of breakage was assessed visually at 40× magnification. After low speed centrifugation to remove cell debris, the supernatant was centrifuged at 100,000×g for 60 min. to separate membranes plus ribosomes from cytoplasmic components. Membranes were further washed two additional times with breakage buffer using the same centrifugation conditions and finally suspended in breakage buffer at 25 to 30 mg/mL protein (Biorad) for storage at −70° C. Extraction of GS activity from membranes was performed at a protein concentration of 5 mg/mL in extraction buffer (50 mM NaPO4 pH 7.5, 0.1 M KCl, 0.1M Na citrate, 20% glycerol, 5 μM GTP-γ-S, 1 mM DTT, 1 mM PMSF, 3 μg/mL pepstatin) plus 0.25% W1 by gentle mixing at 4° C. for 60 min, followed by centrifugation at 100,000×g for 60 min. After centrifugation, clear supernatant was removed from a pellet consisting of a hard layer usually with small amounts of gelatinous unextracted membranes above it.
Trapping was initiated immediately by 5-fold dilution in trapping buffer (50 mM HEPES pH 7.5, 10 mM KF, 1 mM EDTA, 2 mg/mL BSA) plus 2.5 mM UDPG and 10 μM GTP-γ-S. After incubation at 25° C. for 60 to 90 minutes, glucan was harvested by low speed centrifugation (3,000×g, 10 min). […]

T1 sequence (O13428 1-1897): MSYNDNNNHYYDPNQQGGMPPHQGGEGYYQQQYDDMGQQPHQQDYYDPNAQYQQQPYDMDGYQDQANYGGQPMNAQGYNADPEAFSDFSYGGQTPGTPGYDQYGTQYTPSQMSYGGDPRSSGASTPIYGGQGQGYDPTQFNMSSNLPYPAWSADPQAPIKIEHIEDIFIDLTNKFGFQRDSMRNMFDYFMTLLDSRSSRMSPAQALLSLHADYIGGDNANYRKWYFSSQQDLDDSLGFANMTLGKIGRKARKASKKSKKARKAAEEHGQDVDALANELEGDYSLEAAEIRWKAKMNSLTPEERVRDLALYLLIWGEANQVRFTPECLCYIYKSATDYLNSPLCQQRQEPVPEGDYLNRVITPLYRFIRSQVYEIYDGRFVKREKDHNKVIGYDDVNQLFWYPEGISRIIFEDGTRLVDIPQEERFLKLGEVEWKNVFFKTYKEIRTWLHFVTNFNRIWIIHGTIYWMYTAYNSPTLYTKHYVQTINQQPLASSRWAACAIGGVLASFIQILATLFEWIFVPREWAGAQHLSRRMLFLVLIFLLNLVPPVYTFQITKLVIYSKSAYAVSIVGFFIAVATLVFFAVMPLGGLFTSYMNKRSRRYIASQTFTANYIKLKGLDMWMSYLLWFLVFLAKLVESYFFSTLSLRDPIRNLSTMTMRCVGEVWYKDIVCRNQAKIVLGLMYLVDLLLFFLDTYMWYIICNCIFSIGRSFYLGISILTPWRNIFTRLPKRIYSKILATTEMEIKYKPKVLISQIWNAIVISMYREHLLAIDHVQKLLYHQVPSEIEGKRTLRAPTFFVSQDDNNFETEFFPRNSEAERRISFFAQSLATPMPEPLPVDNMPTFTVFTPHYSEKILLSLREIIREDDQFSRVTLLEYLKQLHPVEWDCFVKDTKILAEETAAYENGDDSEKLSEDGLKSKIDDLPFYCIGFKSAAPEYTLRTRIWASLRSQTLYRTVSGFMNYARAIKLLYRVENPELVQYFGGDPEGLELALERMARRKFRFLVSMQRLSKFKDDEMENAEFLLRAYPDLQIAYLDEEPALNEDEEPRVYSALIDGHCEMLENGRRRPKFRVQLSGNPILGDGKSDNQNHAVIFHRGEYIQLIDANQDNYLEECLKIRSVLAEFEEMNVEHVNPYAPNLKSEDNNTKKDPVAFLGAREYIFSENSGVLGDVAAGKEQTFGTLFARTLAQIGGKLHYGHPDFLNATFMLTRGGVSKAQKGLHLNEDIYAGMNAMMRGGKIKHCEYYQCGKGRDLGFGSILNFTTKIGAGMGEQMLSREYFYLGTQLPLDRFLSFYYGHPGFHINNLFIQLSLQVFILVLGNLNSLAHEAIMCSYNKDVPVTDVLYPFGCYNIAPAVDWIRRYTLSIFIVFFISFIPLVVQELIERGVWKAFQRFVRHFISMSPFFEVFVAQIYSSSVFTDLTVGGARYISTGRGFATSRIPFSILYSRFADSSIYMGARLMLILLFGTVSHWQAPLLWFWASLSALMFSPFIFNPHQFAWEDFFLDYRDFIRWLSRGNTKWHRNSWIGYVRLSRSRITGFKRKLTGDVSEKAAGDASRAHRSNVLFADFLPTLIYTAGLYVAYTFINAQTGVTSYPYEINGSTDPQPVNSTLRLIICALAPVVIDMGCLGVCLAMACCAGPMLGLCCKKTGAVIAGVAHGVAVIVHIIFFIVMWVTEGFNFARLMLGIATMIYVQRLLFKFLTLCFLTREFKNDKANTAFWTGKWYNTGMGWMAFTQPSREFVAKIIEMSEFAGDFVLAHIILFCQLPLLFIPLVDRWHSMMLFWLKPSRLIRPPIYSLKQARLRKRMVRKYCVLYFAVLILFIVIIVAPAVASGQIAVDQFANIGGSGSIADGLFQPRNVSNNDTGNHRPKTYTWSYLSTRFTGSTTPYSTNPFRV
T1 sequence (O42825 1-195 partner limits assumed): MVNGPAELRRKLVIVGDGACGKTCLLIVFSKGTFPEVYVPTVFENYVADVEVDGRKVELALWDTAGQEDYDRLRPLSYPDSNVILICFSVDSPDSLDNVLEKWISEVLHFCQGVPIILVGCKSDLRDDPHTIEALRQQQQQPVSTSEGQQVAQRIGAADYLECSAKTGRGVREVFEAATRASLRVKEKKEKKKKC

SMILES	IC50 [nM]
CC(C)[C@@H](C)[C@@]1(C)CC[C@]2(C)[C@H]3CC[C@@H]4[C@@]5(COC[C@@]4(C)[C@@H](OC[C@](C)(N)C(C)C)[C@H](n4nnc(CO)n4)C5)C3=CC[C@@]2(C)[C@@H]1C(=O)O [Example 43B, (1S,4aR,6aS,7R,8R,10aR,10bR,12aR,14R,15R)-15-[[(2R)-2-amino-2,3-dimethylbutyl]oxy]-8-[(1R)-1,2-dimethylpropyl]-14-[5-(hydroxymethyl)-2H-tetrazol-2-yl]-1,6,6a,7,8,9,10,10a,10b,11,12,12a-dodecahydro-1,6a,8,10a-tetramethyl-4H-1,4a-propano-2H-phenanthro[1,2-c]pyran-7-carboxylic acid]	85.1
CC(C)C(C(C)O[C@H]1[C@H](n2nnc(N)n2)C[C@@]23COC[C@]1(C)[C@@H]2CC[C@H]1C3=CC[C@@]2(C)[C@H](C(=O)O)[C@@](C)([C@H](C)C(C)C)CC[C@]12C)N(C)C (stereo partly drawn) [Example 49, (1S,4aR,6aS,7R,8R,10aR,10bR,12aR,14R,15R)-14-(5-amino-2H-tetrazol-2-yl)-15-[2-(dimethylamino)-1,3-dimethylbutoxy]-8-[(1R)-1,2-dimethylpropyl]-1,6,6a,7,8,9,10,10a,10b,11,12,12a-dodecahydro-1,6a,8,10a-tetramethyl-4H-1,4a-propano-2H-phenanthro[1,2-c]pyran-7-carboxylic acid]	26.4
CC(C)[C@@H](C)[C@@]1(C)CC[C@]2(C)[C@H]3CC[C@@H]4[C@@]5(COC[C@@]4(C)[C@@H](OC[C@@](C)(N)C(C)C)[C@H](n4nnc(N)n4)C5)C3=CC[C@@]2(C)[C@@H]1C(N)=O [Example 51, (1S,4aR,6aS,7R,8R,10aR,10bR,12aR,14R,15R)-15-[[(2S)-2-amino-2,3-dimethylbutyl]oxy]-14-(5-amino-2H-tetrazol-2-yl)-8-[(1 R)-1,2-dimethylpropyl]-1,6,6a,7,8,9,10,10a,10b,11,12,12a-dodecahydro-1,6a,8,10a-tetramethyl-4H-1,4a-propano-2H-phenanthro[1,2-c]pyran-7-carboxamide]	3.06
CN[C@@](C)(CO[C@H]1[C@H](n2nnc(N)n2)C[C@@]23COC[C@]1(C)[C@@H]2CC[C@H]1C3=CC[C@@]2(C)[C@H](C(=O)O)[C@@](C)([C@H](C)C(C)C)CC[C@]12C)C(C)C [Example 52, (1S,4aR,6aS,7R,8R,10aR,10bR,12aR,14R,15R)-14-(5-amino-2H-tetrazol-2-yl)-15-[[(2R)-2,3-dimethyl-2-(methylamino)butyl]oxy]-8-[(1R)-1,2-dimethylpropyl]-1,6,6a,7,8,9,10,10a,10b,11,12,12a-dodecahydro-1,6a,8,10a-tetramethyl-4H-1,4a-propano-2H-phenanthro[1,2-c]pyran-7-carboxylic acid]	2.99
CCCN[C@@](C)(CO[C@H]1[C@H](n2nnc(N)n2)C[C@@]23COC[C@]1(C)[C@@H]2CC[C@H]1C3=CC[C@@]2(C)[C@H](C(=O)O)[C@@](C)([C@H](C)C(C)C)CC[C@]12C)C(C)C [Example 55, (1S,4aR,6aS,7R,8R,10aR,10bR,12aR,14R,15R)-14-(5-amino-2H-tetrazol-2-yl)-15-[[(2R)-2,3-dimethyl-2-(propylamino)butyl]oxy]-8-[(1R)-1,2-dimethylpropyl]-1,6,6a,7,8,9,10,10a,10b,11,12,12a-dodecahydro-1,6a,8,10a-tetramethyl-4H-1,4a-propano-2H-phenanthro[1,2-c]pyran-7-carboxylic acid]	11.5
CC(C)N[C@@](C)(CO[C@H]1[C@H](n2nnc(N)n2)C[C@@]23COC[C@]1(C)[C@@H]2CC[C@H]1C3=CC[C@@]2(C)[C@H](C(=O)O)[C@@](C)([C@H](C)C(C)C)CC[C@]12C)C(C)C [Example 57, (1S,4aR,6aS,7R,8R,10aR,10bR,12aR,14R,15R)-14-(5-amino-2H-tetrazol-2-yl)-15-[[(2R)-2,3-dimethyl-2-[(1-methylethyl)amino]butyl]oxy]-8-[(1R)-1,2-dimethylpropyl]-1,6,6a,7,8,9,10,10a,10b,11,12,12a-dodecahydro-1,6a,8,10a-tetramethyl-4H-1,4a-propano-2H-phenanthro[1,2-c]pyran-7-carboxylic acid]	8.61
CC(C)[C@@H](C)[C@@]1(C)CC[C@]2(C)[C@H]3CC[C@@H]4[C@@]5(COC[C@@]4(C)[C@@H](OC[C@](C)(NCc4ccccc4)C(C)C)[C@H](n4nnc(N)n4)C5)C3=CC[C@@]2(C)[C@@H]1C(=O)O [Example 61, (1S,4aR,6aS,7R,8R,10aR,10bR,12aR,14R,15R)-14-(5-amino-2H-tetrazol-2-yl)-15-[[(2R)-2,3-dimethyl-2-[(phenylmethyl)amino]butyl]oxy]-8-[(1R)-1,2-dimethylpropyl]-1,6,6a,7,8,9,10,10a,10b,11,12,12a-dodecahydro-1,6a,8,10a-tetramethyl-4H-1,4a-propano-2H-phenanthro[1,2-c]pyran-7-carboxylic acid]	10.7
CCCN(C)[C@](C)(CO[C@H]1[C@H](n2nnc(N)n2)C[C@@]23COC[C@]1(C)[C@@H]2CC[C@H]1C3=CC[C@@]2(C)[C@H](C(=O)O)[C@@](C)([C@H](C)C(C)C)CC[C@]12C)C(C)C [Example 69, (1S,4aR,6aS,7R,8R,10aR,10bR,12aR,14R,15R)-14-(5-amino-2H-tetrazol-2-yl)-15-[[(2S)-2,3-dimethyl-2-(methylpropylamino)butyl]oxy]-8-[(1R)-1,2-dimethylpropyl]-1,6,6a,7,8,9,10,10a,10b,11,12,12a-dodecahydro-1,6a,8,10a-tetramethyl-4H-1,4a-propano-2H-phenanthro[1,2-c]pyran-7-carboxylic acid]	28.1
CCCCN[C@](C)(CO[C@H]1[C@H](n2nnc(N)n2)C[C@@]23COC[C@]1(C)[C@@H]2CC[C@H]1C3=CC[C@@]2(C)[C@H](C(=O)O)[C@@](C)([C@H](C)C(C)C)CC[C@]12C)C(C)C [Example 71, (1S,4aR,6aS,7R,8R,10aR,10bR,12aR,14R,15R)-14-(5-amino-2H-tetrazol-2-yl)-15-[[(2S)-2-(butylamino)-2,3-dimethylbutyl]oxy]-8-[(1R)-1,2-dimethylpropyl]-1,6,6a,7,8,9,10,10a,10b,11,12,12a-dodecahydro-1,6a,8,10a-tetramethyl-4H-1,4a-propano-2H-phenanthro[1,2-c]pyran-7-carboxylic acid]	12.7
CCC[C@H](CO[C@H]1[C@H](n2nnc(N)n2)C[C@@]23COC[C@]1(C)[C@@H]2CC[C@H]1C3=CC[C@@]2(C)[C@H](C(=O)O)[C@@](C)([C@H](C)C(C)C)CC[C@]12C)N(C)C [Example 77, (1S,4aR,6aS,7R,8R,10aR,10bR,12aR,14R,15R)-14-(5-amino-2H-tetrazol-2-yl)-15-[[(2R)-2-(dimethylamino)pentyl]oxy]-8-[(1R)-1,2-dimethylpropyl]-1,6,6a,7,8,9,10,10a,10b,11,12,12a-dodecahydro-1,6a,8,10a-tetramethyl-4H-1,4a-propano-2H-phenanthro[1,2-c]pyran-7-carboxylic acid]	20.9
